# Laboratory results reported in patent publication US9079895B2, “Morpholino compounds, uses and methods” (University of Dundee, priority 2012, dated 2015).
# pKi: −log10 of the molar value.
# Assays:
# Settings in all cases: average of at least two experiments
# 5HT7 receptor = 5HT7 receptor (Homo sapiens (Human), UniProt P34969); test: Secondary radioligand binding assay, 5HT7; design: key to Ki 5HT7: “—” indicates that a binding interaction was not detected;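 note: competition of test compound with radioligand for binding to membranes from transfected cell lines, 1.5 h incubation at room temperature, filter-bound radioactivity read by liquid scintillation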
# Experimental: (§9) Assay Buffer: Standard Binding Buffer (50 mM Tris-HCl, 10 mM MgCl2, 1 mM EDTA, pH 7.4)
# (§10) Membrane Fraction Source: Transiently or stably transfected cell lines (e.g., HEK293, COS, CHO, NIH3T3)
# 5HT6 receptor = 5HT6 receptor (Homo sapiens (Human), UniProt P50406); test: Secondary radioligand binding assay, 5HT6; design: key: “—” indicates that a binding interaction was not detected;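 note: competition displacement of radioligand from membranes of transfected cell lines expressing the receptor, 1.5 h at room temperature, bound radioactivity counted by scintillation after filtration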
# Experimental: as §9, §10
# dopamine D3 receptor = dopamine D3 receptor (Homo sapiens (Human), UniProt P35462); test: Secondary radioligand binding assay, D3; design: key to Ki D3: “—” indicates that a binding interaction was not detected
# Experimental: (§1) 1. Secondary Radioligand Binding Assays
# (§2) The detailed experimental protocols for the radioligand and functional receptor assays are available on the NIMH PDSP website at http://pdsp.med.unc.edu/UNC-CH %20Protocol %20Book.pdf.
# (§3) Radioligand is diluted to five times the assay concentration (see Table 18) in Standard Binding Buffer. Typically, the assay concentration of radioligand is a value between one half the KD and the KD of a particular radioligand at its target. 50 μl aliquots of radioligand are dispensed into the wells of a 96-well plate containing 100 μl of Standard Binding Buffer. Then, duplicate 50 μl aliquots of the test and reference compound dilutions are added.
# (§4) The 250 μl reactions are incubated at room temperature and shielded from light (to prevent photolysis of light-sensitive ligands) for 1.5 hours, then harvested by rapid filtration onto Whatman GF/B glass fiber filters pre-soaked with 0.3% polyethyleneimine using a 96-well Brandel harverster. Four rapid 500 μl washes are performed with chilled Standard Binding Buffer to reduce non-specific binding. Filters are placed in 6 ml scintillation tubes and allowed to dry overnight. The next day, 4 ml of EcoScint scintillation cocktail (National Diagnostics) are added to each tube. The tubes are capped, labeled, and counted by liquid scintillation counting. […] The filter mats are dried, then scintillant is melted onto the filters and the radioactivity retained on the filters is counted in a Microbeta scintillation counter.
# (§5) Raw data (dpm) representing total radioligand binding (i.e. specific+non-specific binding) are plotted as a function of the logarithm of the molar concentration of the competitor (i.e. test or reference compound).
# (§6) B. Dopamine Receptors: D1, D2, D3, D4, D5 Assay Buffers: Dopamine Binding Buffer (50 mM NaCl, 50 mM HEPES-HCl, 5 mM MgCl2, 0.5 mM EDTA, pH 7.4) Membrane Fraction Source: Transiently or stably transfected cell lines (e.g. HEK293, COS, CHO, NIH3T3)
# (§7) The method is carried out in the manner described for the serotonin receptor assay above. Eleven dilutions (5× assay concentration) of the test and reference (see Table 19) compounds are prepared in Dopamine Binding Buffer by serial dilution, as previously described. Radioligand is diluted to five times the assay concentration (see Table 20) in Dopamine Binding Buffer.
# [1] = biological target: Alpha1A adrenergic receptor (Homo sapiens (Human), UniProt P35348); test: Secondary radioligand binding assay, Alpha1A; design: key to Ki Alpha1A: “—” indicates that a binding interaction was not detected
# Excerpt: (§8) 1. Secondary Radioligand Binding Assays The detailed experimental protocols for the radioligand and functional receptor assays are available on the NIMH PDSP website at http://pdsp.med.unc.edu/UNC-CH %20Protocol %20Book.pdf. Raw data (dpm) representing total radioligand binding (i.e. specific+non-specific binding) are plotted as a function of the logarithm of the molar concentration of the competitor (i.e. test or reference compound). […] C. Adrenergic Receptors: α1A, α1B, α2A, α2B, α2C, β1, β2, β3 Assay Buffers: For α1 receptors, α1 Binding Buffer (20 mM Tris-HCl, 145 mM NaCl, pH 7.4); for α2 receptors, α2 Binding Buffer (50 mM Tris-HCl, 5 mM MgCl2, pH 7.7); for β receptors, β Binding Buffer (50 mM Tris-HCl, 3 mM MnCl2, pH 7.7) Membrane Fraction Source: Transiently or stably transfected cell lines (e.g. HEK293, COS, CHO, NIH3T3) Protocol adapted from Arango et al. […] (1990), Gen. Psychiatry, 47: 1038-1047. The method is carried out in the manner described for the serotonin receptor assay above, except where described below. Eleven dilutions (5× assay concentration) of the test and reference (see Table 20) compounds are prepared in the appropriate buffer by serial dilution, as previously described. Radioligand is diluted to five times the assay concentration (see Table 21) in the appropriate buffer. […] Four rapid 500-μl washes are performed with chilled distilled water (for α1 and β receptors) or 0.1% polyethyleneimine (for α2 receptors) to reduce non-specific binding. Filters are placed in 6 ml scintillation tubes and allowed to dry overnight and the samples are treated to obtain data as described above. [table]
# dopamine D1 receptor = dopamine D1 receptor (Homo sapiens (Human), UniProt P21728); test: Secondary radioligand binding assay, D1; design: key to Ki D1: “—” indicates that a binding interaction was not detected
# Experimental: as §1, §2, §3, §4, §5, §6, §7
# 5HT1e receptor = 5HT1e receptor (Homo sapiens (Human), UniProt P28566); test: Secondary radioligand binding assay, 5HT1e; design: key: “—” indicates that a binding interaction was not detected;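 note: competition binding against a radioligand on membranes from transfected cell lines, 1.5 h at room temperature, bound radioactivity counted by liquid scintillation after filtration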
# Experimental: as §9, §10
# 5HT1d receptor = 5HT1d receptor (Homo sapiens (Human), UniProt P28221); test: Secondary radioligand binding assay, 5HT1d; design: key to Ki 5HT1d: “—” indicates that a binding interaction was not detected;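 note: competition binding against a radioligand on membranes from transfected cell lines, 1.5 h at room temperature, filter-retained radioactivity counted by liquid scintillation, total binding plotted versus log competitor concentration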
# Experimental: as §9, §10
# 5HT5 receptor = 5HT5 receptor (Homo sapiens (Human), UniProt P47898); test: Secondary radioligand binding assay, 5HT5; design: key: “—” indicates that a binding interaction was not detected;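 note: competitive radioligand displacement on membranes from transfected cell lines, incubated at room temperature in the dark, filter-retained radioactivity counted by liquid scintillation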
# Experimental: as §9, §10
# 5HT2b receptor = 5HT2b receptor (Homo sapiens (Human), UniProt P41595); test: Secondary radioligand binding assay, 5HT2b; design: key to Ki 5HT2b: “—” indicates that a binding interaction was not detected;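 note: competition binding against a radioligand on membranes from transfected cell lines, 1.5 h incubation at room temperature, filter-retained radioactivity counted by liquid scintillation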
# Experimental: as §9, §10
# 5HT3 receptor = 5HT3 receptor (Homo sapiens (Human), UniProt P46098); test: Secondary radioligand binding assay, 5HT3; design: key: “—” indicates that a binding interaction was not detected;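 note: radioligand competition binding on membranes from transfected cell lines, 1.5 h incubation at room temperature, filter-retained radioactivity measured by liquid scintillation counting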
# Experimental: as §9, §10
# dopamine D2 receptor = dopamine D2 receptor (Homo sapiens (Human), UniProt P14416); test: Secondary radioligand binding assay, D2; design: key to Ki D2: “—” indicates that a binding interaction was not detected
# Experimental: as §1, §2, §3, §4, §5, §6, §7
# [2] = biological target: Alpha1B adrenergic receptor (Homo sapiens (Human), UniProt P35368); test: Secondary radioligand binding assay, Alpha1B; design: key to Ki Alpha1B: “—” indicates that a binding interaction was not detected
# Excerpt: as §8
# 5HT1e receptor, sequence (P28566 whole entry): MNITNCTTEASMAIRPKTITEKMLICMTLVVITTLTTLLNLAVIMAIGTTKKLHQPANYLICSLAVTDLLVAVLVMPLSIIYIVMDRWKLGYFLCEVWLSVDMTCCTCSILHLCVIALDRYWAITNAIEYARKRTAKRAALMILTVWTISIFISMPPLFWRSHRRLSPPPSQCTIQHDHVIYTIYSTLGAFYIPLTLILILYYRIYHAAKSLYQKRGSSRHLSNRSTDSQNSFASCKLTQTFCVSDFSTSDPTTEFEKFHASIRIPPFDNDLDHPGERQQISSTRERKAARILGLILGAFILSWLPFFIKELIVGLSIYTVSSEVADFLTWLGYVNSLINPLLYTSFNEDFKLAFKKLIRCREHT
# dopamine D1 receptor, sequence (P21728 whole entry): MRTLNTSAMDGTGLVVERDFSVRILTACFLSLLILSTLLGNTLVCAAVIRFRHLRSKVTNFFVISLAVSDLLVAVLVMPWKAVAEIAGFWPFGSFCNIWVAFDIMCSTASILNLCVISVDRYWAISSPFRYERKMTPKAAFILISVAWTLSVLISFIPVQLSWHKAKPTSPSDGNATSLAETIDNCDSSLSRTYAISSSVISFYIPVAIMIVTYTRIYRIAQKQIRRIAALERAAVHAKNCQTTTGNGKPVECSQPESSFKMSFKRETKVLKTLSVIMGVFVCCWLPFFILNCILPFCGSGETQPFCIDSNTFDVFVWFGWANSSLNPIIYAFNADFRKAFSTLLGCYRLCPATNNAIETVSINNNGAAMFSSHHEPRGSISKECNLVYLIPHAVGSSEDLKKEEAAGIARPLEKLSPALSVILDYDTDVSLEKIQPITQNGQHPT
# 5HT6 receptor, sequence (P50406 whole entry): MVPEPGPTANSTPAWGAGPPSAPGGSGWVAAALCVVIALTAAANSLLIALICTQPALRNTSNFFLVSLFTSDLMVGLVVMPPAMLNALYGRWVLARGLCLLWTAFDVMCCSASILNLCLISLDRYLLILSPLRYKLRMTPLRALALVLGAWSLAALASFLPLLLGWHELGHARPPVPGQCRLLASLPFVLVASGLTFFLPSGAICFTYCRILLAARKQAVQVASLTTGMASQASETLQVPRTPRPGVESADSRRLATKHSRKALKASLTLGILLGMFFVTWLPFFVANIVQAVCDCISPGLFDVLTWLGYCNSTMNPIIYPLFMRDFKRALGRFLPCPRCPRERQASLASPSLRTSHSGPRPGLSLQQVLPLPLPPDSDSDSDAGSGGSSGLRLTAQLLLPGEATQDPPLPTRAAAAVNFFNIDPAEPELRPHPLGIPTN
# 5HT2b receptor, sequence (P41595 whole entry): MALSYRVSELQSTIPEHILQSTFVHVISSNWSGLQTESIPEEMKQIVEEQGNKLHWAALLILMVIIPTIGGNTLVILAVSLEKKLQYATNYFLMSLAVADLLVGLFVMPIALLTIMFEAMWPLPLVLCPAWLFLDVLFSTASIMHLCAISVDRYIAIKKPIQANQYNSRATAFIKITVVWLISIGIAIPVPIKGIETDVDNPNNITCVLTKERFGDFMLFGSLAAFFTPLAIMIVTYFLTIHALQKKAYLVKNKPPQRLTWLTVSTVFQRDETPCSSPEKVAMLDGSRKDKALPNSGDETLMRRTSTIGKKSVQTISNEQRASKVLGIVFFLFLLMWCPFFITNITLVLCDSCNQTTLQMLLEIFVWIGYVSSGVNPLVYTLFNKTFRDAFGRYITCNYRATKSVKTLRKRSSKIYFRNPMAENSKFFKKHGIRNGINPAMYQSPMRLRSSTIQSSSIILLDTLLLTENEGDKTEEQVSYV
# Alpha1A adrenergic receptor, sequence (P35348 whole entry): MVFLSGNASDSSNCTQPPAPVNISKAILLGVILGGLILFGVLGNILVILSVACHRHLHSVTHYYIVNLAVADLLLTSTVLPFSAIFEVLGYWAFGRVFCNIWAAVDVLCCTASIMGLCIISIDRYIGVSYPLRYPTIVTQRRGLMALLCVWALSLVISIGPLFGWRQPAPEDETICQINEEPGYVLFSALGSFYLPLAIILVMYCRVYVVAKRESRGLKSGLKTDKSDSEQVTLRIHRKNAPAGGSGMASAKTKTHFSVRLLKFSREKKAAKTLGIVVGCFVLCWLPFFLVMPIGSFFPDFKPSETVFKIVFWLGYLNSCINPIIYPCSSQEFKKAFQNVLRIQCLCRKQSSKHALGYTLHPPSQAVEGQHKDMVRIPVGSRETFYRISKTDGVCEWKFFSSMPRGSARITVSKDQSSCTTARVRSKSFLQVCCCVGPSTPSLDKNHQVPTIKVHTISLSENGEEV
# 5HT3 receptor, sequence (P46098 24-478): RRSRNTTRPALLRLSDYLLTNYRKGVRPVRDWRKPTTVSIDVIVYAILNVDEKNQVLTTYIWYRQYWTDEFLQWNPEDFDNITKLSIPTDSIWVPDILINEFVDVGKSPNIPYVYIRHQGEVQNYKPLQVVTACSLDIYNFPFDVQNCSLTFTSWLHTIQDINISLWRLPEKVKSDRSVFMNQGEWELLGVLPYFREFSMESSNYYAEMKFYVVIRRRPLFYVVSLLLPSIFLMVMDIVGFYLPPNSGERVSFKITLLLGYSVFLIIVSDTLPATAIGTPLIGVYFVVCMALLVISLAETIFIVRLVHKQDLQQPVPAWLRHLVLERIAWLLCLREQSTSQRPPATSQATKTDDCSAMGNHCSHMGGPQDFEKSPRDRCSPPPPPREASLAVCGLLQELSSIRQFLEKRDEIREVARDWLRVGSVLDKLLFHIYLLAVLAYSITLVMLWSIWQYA
# 5HT5 receptor, sequence (P47898 whole entry): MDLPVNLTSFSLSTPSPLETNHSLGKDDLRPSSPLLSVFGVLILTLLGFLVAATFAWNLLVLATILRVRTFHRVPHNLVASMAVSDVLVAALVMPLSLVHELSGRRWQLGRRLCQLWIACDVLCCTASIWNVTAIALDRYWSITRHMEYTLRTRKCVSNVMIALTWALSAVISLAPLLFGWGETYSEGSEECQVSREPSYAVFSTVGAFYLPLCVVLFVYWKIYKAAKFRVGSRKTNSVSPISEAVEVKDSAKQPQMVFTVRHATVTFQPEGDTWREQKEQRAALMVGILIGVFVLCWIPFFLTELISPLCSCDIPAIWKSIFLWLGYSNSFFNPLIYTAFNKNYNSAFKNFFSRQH
# Alpha1B adrenergic receptor, sequence (P35368 whole entry): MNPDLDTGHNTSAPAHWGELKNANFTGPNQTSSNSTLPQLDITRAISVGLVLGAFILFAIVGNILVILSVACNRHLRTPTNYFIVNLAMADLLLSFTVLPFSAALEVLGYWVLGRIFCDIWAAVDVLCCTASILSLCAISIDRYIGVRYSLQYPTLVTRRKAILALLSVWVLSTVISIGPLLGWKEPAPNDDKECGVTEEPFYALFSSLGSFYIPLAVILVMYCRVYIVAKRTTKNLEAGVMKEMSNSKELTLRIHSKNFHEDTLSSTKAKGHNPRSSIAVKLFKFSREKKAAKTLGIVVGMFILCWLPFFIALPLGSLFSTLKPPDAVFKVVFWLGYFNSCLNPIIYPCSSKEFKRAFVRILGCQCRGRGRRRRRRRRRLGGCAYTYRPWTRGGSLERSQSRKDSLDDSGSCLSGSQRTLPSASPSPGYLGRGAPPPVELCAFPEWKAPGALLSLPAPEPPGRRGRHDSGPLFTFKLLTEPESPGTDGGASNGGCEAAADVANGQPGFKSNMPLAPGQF
# dopamine D2 receptor, sequence (P14416 whole entry, species assumed): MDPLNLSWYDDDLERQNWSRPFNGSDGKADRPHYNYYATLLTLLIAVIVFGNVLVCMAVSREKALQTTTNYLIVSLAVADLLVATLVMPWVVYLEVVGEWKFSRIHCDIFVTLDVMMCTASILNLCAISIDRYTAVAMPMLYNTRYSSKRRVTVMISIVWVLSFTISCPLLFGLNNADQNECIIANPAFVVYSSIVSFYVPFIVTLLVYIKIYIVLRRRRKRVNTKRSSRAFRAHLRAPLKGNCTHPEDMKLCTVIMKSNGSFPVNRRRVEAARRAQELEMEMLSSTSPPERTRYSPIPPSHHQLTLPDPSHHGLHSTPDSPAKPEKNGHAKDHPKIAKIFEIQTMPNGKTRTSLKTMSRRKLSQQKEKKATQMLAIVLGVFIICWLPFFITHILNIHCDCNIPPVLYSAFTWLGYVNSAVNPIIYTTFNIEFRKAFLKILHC
# 5HT1d receptor, sequence (P28221 whole entry): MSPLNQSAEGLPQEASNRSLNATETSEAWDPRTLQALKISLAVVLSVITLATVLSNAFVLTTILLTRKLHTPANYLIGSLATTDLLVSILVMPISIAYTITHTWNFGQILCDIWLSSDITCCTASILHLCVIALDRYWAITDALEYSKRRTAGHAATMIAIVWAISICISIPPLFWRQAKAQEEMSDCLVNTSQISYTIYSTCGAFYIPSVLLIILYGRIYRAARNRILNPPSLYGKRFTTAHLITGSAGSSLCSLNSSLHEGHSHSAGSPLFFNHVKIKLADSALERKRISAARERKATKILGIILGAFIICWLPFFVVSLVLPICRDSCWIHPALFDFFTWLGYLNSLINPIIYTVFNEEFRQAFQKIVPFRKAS
# dopamine D3 receptor, sequence (P35462 whole entry, species assumed): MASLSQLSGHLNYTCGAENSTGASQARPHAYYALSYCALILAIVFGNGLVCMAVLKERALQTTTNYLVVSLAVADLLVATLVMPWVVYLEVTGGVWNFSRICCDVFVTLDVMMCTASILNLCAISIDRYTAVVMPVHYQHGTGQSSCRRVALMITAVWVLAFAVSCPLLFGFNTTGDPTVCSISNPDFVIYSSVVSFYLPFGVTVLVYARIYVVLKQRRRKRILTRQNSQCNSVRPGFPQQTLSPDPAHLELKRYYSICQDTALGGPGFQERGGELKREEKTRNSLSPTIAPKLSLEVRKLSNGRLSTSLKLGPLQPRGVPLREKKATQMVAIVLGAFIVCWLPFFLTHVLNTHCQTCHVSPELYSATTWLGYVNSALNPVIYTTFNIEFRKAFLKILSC
SMILES,Ki 5HT7 (5HT7 receptor),Ki 5HT6 (5HT6 receptor),Ki D3 (dopamine D3 receptor),Ki Alpha1A [1],Ki D1 (dopamine D1 receptor),Ki 5HT1e (5HT1e receptor),Ki 5HT1d (5HT1d receptor),Ki 5HT5 (5HT5 receptor),pKi (5HT2b receptor),Ki 5HT3 (5HT3 receptor),Ki D2 (dopamine D2 receptor),Ki Alpha1B [2],Ki 5HT2b (5HT2b receptor),pKi (dopamine D3 receptor),pKi (dopamine D1 receptor)
"O=C(CN1CCO[C@H](COc2cccc(Cl)c2)C1)N1CCc2ccccc21 [Compound 22s, (S)-2-(2-((3-Chlorophenoxy)methyl)morpholino)-1-(indolin-1-yl)ethanone]",—,—,—,—,—,—,—,—,5.96,—,—,—,,,
CC1Cc2ccccc2N1C(=O)CN1CCO[C@@H](COc2ccccn2)C1 (stereo partly drawn) [Compound 69],—,—,—,—,—,—,—,—,,—,—,—,—,,
"Cc1ncccc1OC[C@@H]1CN(CCN2CCc3ccccc32)CCO1 [Compound 26s, (S)-4-(2-(Indolin-1-yl)ethyl)-2-(((2-methylpyridin-3-yl)oxy)methyl)morpholine]",—,—,—,—,—,—,—,—,,—,—,—,—,,
"O=C(CN1CCO[C@@H](COc2cccnc2)C1)N1CCc2ccccc21 [Compound 20r, (R)-1-(Indolin-1-yl)-2-(2-((pyridin-3-yloxy)methyl)morpholino)ethanone]",—,—,—,—,—,—,—,—,5.06,—,—,—,,,
"c1ccc(OC[C@H]2CN(CCN3CCc4ccccc43)CCO2)nc1 [Compound 15r, (R)-4-(2-(Indolin-1-yl)ethyl)-2-((pyridin-2-yloxy)methyl)morpholine]",—,—,,—,—,—,—,—,6.22,—,—,—,,< 5.00,
"Clc1cncc(OC[C@H]2CN(CCN3CCc4ccccc43)CCO2)c1 [Compound 27r, (R)-2-(((5-Chloropyridin-3-yl)oxy)methyl)-4-(2-(indolin-1-yl)ethyl)morpholine]",—,—,—,—,—,—,—,—,5.59,—,—,—,,,
"COc1cccc(OC[C@@H]2CN(CC(=O)N3CCc4ccccc43)CCO2)c1 [Compound 24s, (S)-1-(Indolin-1-yl)-2-(2-((3-methoxyphenoxy)methyl)morpholino)ethanone]",—,—,—,—,—,—,—,—,5.78,—,—,—,,,
"c1cncc(OC[C@H]2CN(CCN3CCc4ccccc43)CCO2)c1 [Compound 21r, (R)-4-(2-(Indolin-1-yl)ethyl)-2-((pyridin-3-yloxy)methyl)morpholine]",—,—,—,—,,—,—,—,,—,—,—,—,,< 5.00
"O=C(CN1CCO[C@@H](COc2cccc(Cl)c2)C1)N1CCc2ccccc21 [Compound 22r, (R)-2-(2-((3-chlorophenoxy)methyl)morpholino)-1-(indolin-1-yl)ethanone]",—,—,—,—,—,—,—,—,5.63,—,—,—,,,
CC1Cc2ccccc2N1C(=O)CN1CCO[C@H](COc2cccc(Cl)c2)C1 (stereo partly drawn) [Compound 64],—,—,—,—,—,—,—,—,6.36,—,—,—,,,
CC1Cc2ccccc2N1C(=O)CN1CCO[C@@H](COc2ccncc2)C1 (stereo partly drawn) [Compound 68],—,—,—,—,—,—,—,—,,—,—,—,—,,
C[C@@H]1Cc2ccccc2N1C(=O)CN1CCO[C@@H](COc2ccncc2)C1 [Compound 67],—,—,—,—,—,—,—,—,,—,—,—,—,,
